Holding throughout (type): in vivo
Series [1] deals with directly sowed rice plant. Put plainly: Test Example 3: effect on crop by foliage application, Wagner pot (symbol b). To be noted: application herbicide amount 320 g/ha. In a few lines: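 Plants are raised from seed in flooded paddy conditions: water stands 0.1–0.5 cm over alluvial soil, and the pot is kept in a greenhouse at 25–30 °C. Species sown are barnyardgrass (E. crus-galli var. crus-galli), Leptochloa chinensis, Cyperus difformis and rice.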

Series [2] concerns soybean. Put plainly: Test Example 5: effect on crop by foliage application, plastic box (symbol d). To be noted: 320 g/ha, 3 weeks after application. In a few lines:
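Greenhouse test at 25° C. to 30° C. Seeds of crops and weeds were spot-sown in boxes of sterilized diluvial soil under roughly 1.5 cm soil cover, then grown for foliage treatment.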

For series [3], the system named is Echinochloa crus-galli var. crus-galli. Put plainly: Test Example 5: herbicidal effect by foliage application, plastic box (symbol H). The following applies: 320 g/ha, 3 weeks after application. The method, boiled down:
(§1)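 Leaf-applied emulsion, water-diluted to a preset herbicide dose, on two-week-old seedlings raised in a 25° C. to 30° C. greenhouse; injury rated at 3 weeks using earlier criteria.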

The test system of series [4] is Lolium multiflorum Lam. Put plainly: Test Example 5: herbicidal effect by foliage application, plastic box (symbol K). To be noted: 320 g/ha, 3 weeks after application. The method, boiled down:
as §1

For series [5], the system named is Abutilon theophrasti. Put plainly: Test Example 4: herbicidal effect by soil treatment (symbol M). The following applies: application herbicide amount 320 g/ha. The method, boiled down:
(§2)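 Seeds were sown in sterilized diluvial soil, covered with about 1.5 cm of soil, and the soil surface was sprayed with a water-diluted emulsion of the compound at a predetermined rate. Plants grew in a greenhouse at 25° C. to 30° C.; effects were scored visually 3 weeks after application.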

Series [6] has as its system Monochoria vaginalis. Put plainly: Test Example 1: herbicidal activity, application before weed generation in submerged conditions (symbol C). To be noted: application herbicide amount 320 g/ha. The method, boiled down: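 In a flooded pot test with alluvial soil, the emulsion-formulated compound was diluted with water to a predetermined amount and applied to the floodwater immediately on the sowing day. Pots were held in a greenhouse at 25–30 °C for 3 weeks before each weed was rated.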

The subject of series [7] is Stellaria media. Put plainly: Test Example 4: herbicidal effect by soil treatment (symbol P). To be noted: application herbicide amount 320 g/ha. The method, boiled down:
as §2

The subject of series [8] is beet. Put plainly: Test Example 4: effect on crop by soil treatment (symbol f). The following applies: application herbicide amount 320 g/ha. The method, boiled down:
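Plants are raised in a greenhouse (25° C. to 30° C.) from spot-sown seed, which sits under about 1.5 cm of sterilized diluvial soil in a box shared with weed species.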

The test system of series [9] is Scirpus juncoides. Put plainly: Test Example 2: herbicidal activity, application during weed generation in submerged conditions (symbol B). To be noted: Table 23; application herbicide amount 320 g/ha; grade 0-5 by criteria of Test Example 1. The method, boiled down:
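Scoring of herbicidal effect took place 3 weeks after treatment, using the criteria of the earlier test. Treatment was water-surface application of diluted emulsifiable compound at a set dose. Plants were at one- to two-leaf stage in submerged alluvial soil (4 cm depth), greenhouse 25-30° C.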

In the case of `CON=C(C)CC1CC(OS(=O)(=O)N(C)C)=C(c2c(C)cc(-c3ccc(F)cc3)cc2C)C1=O` (mixture of isomers) [6-060], the “effect on crop b (directly sowed rice plant), grade 0-5” value (from here on “effect on crop b”) in series [1] is listed as 5 (Herbicidal ratio of 90% or more (almost completely withered)). Moreover, the “d: soybean, effect on crop (criteria of Test Example 1)” value in series [2] is 1 (Herbicidal ratio of 5% or higher and lower than 20%). Besides, in series [3], the “H: Echinochloa crus-galli var. crus-galli, herbicidal effect (criteria of Test Example 1)” value is 5 (Herbicidal ratio of 90% or more (almost completely withered)). The “K: Lolium multiflorum Lam., herbicidal effect (criteria of Test Example 1)” value in series [4] is 5 (Herbicidal ratio of 90% or more (almost completely withered)). The “M: Abutilon theophrasti, herbicidal effect grade” value in [5] is 0 (Herbicidal ratio of 5% or lower (almost no effect)). The “Herbicidal effect grade, C: Monochoria vaginalis” value (shortened to “Herbicidal effect grade, C”) in series [6] is on record as 5 (Herbicidal ratio of 90% or more (almost completely withered)). The “P: Stellaria media, herbicidal effect grade” value in series [7] was 0 (Herbicidal ratio of 5% or lower (almost no effect)). In series [8], the “f: beet, effect on crop grade” value was 0 (Herbicidal ratio of 5% or lower (almost no effect)). Moreover, the “Herbicidal effect grade, B: Scirpus juncoides” value (“Herbicidal effect grade, B” for short) in series [9] is 4 (Herbicidal ratio of 70% or higher and lower than 90%).
`CON=C(C)C(=O)C1CC(O)=C(c2c(C)cc(C)cc2C)C1=O` (stereo not drawn) [8-002]: in series [1] (Table 24), the “b (directly sowed rice plant) effect on crop grade” value is reported as 0 (Herbicidal ratio of 5% or lower (almost no effect)). Further, the “d: soybean, effect on crop grade” value in series [2] is given as 0 (Herbicidal ratio of 5% or lower (almost no effect)). For the same compound, the “H: Echinochloa crus-galli var. crus-galli, herbicidal effect grade” value in [3] was 3 (Herbicidal ratio of 40% or higher and lower than 70%). Moreover, in series [4], the “K: Lolium multiflorum Lam., herbicidal effect grade” value is 5 (Herbicidal ratio of 90% or more (almost completely withered)). The “Herbicidal effect grade, M: Abutilon theophrasti” value (“Herbicidal effect grade, M” for short) in [5] was 0 (Herbicidal ratio of 5% or lower (almost no effect)). Further, in [6], the “Herbicidal effect grade, C” value was 0 (Herbicidal ratio of 5% or lower (almost no effect)). The “Herbicidal effect grade, P: Stellaria media” value (“Herbicidal effect grade, P” below) in series [7] is listed as 0 (Herbicidal ratio of 5% or lower (almost no effect)). The “Effect on crop grade, f: beet” value in series [8] is 0 (Herbicidal ratio of 5% or lower (almost no effect)). Besides, in series [9], the “Herbicidal effect grade, B” value is 0 (Herbicidal ratio of 5% or lower (almost no effect)).
Consider `CON=C(C)CC1CC(OC(=O)SC(C)(C)C)=C(c2c(C)cc(-c3ccc(Cl)cc3)cc2C)C1=O` (stereo not drawn) [6-082], for which, in [1], the “effect on crop b” value is 5 (Herbicidal ratio of 90% or more (almost completely withered)). Also, the “d: soybean, effect on crop (criteria of Test Example 1)” value in series [2] was 0 (Herbicidal ratio of 5% or lower (almost no effect)). Also, in series [3], the “H: Echinochloa crus-galli var. crus-galli, herbicidal effect (criteria of Test Example 1)” value was 5 (Herbicidal ratio of 90% or more (almost completely withered)). For the same compound, in series [4], the “K: Lolium multiflorum Lam., herbicidal effect (criteria of Test Example 1)” value was 5 (Herbicidal ratio of 90% or more (almost completely withered)). For the same compound, the “M: Abutilon theophrasti, herbicidal effect grade” value in series [5] was 2 (Herbicidal ratio of 20% or higher and lower than 40%). Moreover, in series [6], the “Herbicidal effect grade, C” value was 4 (Herbicidal ratio of 70% or higher and lower than 90%). In addition, the “P: Stellaria media, herbicidal effect grade” value in series [7] is on record as 0 (Herbicidal ratio of 5% or lower (almost no effect)). In addition, the “f: beet, effect on crop grade” value in series [8] is on record as 0 (Herbicidal ratio of 5% or lower (almost no effect)). Also, the “Herbicidal effect grade, B” value in [9] is 3 (Herbicidal ratio of 40% or higher and lower than 70%).
For `CON=C(C)CC1CC(O)=C(c2c(C)cc(-c3ccsc3)cc2C)C1=O` (stereo not drawn) [6-106], the “effect on crop b” value in series [1] is 5 (Herbicidal ratio of 90% or more (almost completely withered)). Also, the “d: soybean, effect on crop (criteria of Test Example 1)” value in series [2] was 1 (Herbicidal ratio of 5% or higher and lower than 20%). Also, the “H: Echinochloa crus-galli var. crus-galli, herbicidal effect (criteria of Test Example 1)” value in [3] is 5 (Herbicidal ratio of 90% or more (almost completely withered)). Further, the “K: Lolium multiflorum Lam., herbicidal effect (criteria of Test Example 1)” value in [4] was 5 (Herbicidal ratio of 90% or more (almost completely withered)). Besides, the “Herbicidal effect grade, M” value in series [5] was 0 (Herbicidal ratio of 5% or lower (almost no effect)). In [6], the “Herbicidal effect grade, C” value was 4 (Herbicidal ratio of 70% or higher and lower than 90%). Further, in [7], the “Herbicidal effect grade, P” value was 0 (Herbicidal ratio of 5% or lower (almost no effect)). Moreover, the “Effect on crop grade, f: beet” value in [8] is listed as 0 (Herbicidal ratio of 5% or lower (almost no effect)). In series [9], the “Herbicidal effect grade, B” value was 5 (Herbicidal ratio of 90% or more (almost completely withered)).
With `CC(=O)CC1CC(O)=C(c2c(C)cc(C)cc2Br)C1=O` (stereo not drawn) [7-011], the “effect on crop b” value in [1] is 5 (Herbicidal ratio of 90% or more (almost completely withered)). Besides, the “d: soybean, effect on crop (criteria of Test Example 1)” value in series [2] was 0 (Herbicidal ratio of 5% or lower (almost no effect)). Moreover, in [3], the “H: Echinochloa crus-galli var. crus-galli, herbicidal effect (criteria of Test Example 1)” value is 5 (Herbicidal ratio of 90% or more (almost completely withered)). Further, the “K: Lolium multiflorum Lam., herbicidal effect (criteria of Test Example 1)” value in series [4] is 5 (Herbicidal ratio of 90% or more (almost completely withered)). The “Herbicidal effect grade, M” value in [5] is given as 0 (Herbicidal ratio of 5% or lower (almost no effect)). Also, the “Herbicidal effect grade, C” value in [6] is 0 (Herbicidal ratio of 5% or lower (almost no effect)). For the same compound, in series [7], the “Herbicidal effect grade, P” value is given as 0 (Herbicidal ratio of 5% or lower (almost no effect)). Besides, the “Effect on crop grade, f: beet” value in series [8] was 0 (Herbicidal ratio of 5% or lower (almost no effect)). The “Herbicidal effect grade, B” value in [9] is 2 (Herbicidal ratio of 20% or higher and lower than 40%).
As to `CC(=O)CC1CC(O)=C(c2c(C)cc(-c3ccc(C(F)(F)F)cc3)cc2C)C1=O` (stereo not drawn) [7-005], the “effect on crop b” value in [1] was 5 (Herbicidal ratio of 90% or more (almost completely withered)). The “d: soybean, effect on crop (criteria of Test Example 1)” value in [2] is 0 (Herbicidal ratio of 5% or lower (almost no effect)). The “H: Echinochloa crus-galli var. crus-galli, herbicidal effect (criteria of Test Example 1)” value in series [3] was 5 (Herbicidal ratio of 90% or more (almost completely withered)). In addition, the “K: Lolium multiflorum Lam., herbicidal effect (criteria of Test Example 1)” value in series [4] was 5 (Herbicidal ratio of 90% or more (almost completely withered)). Besides, the “Herbicidal effect grade, M” value in [5] was 0 (Herbicidal ratio of 5% or lower (almost no effect)). In addition, the “Herbicidal effect grade, C” value in [6] is on record as 0 (Herbicidal ratio of 5% or lower (almost no effect)). Besides, the “Herbicidal effect grade, P” value in [7] is on record as 0 (Herbicidal ratio of 5% or lower (almost no effect)). In addition, the “Effect on crop grade, f: beet” value in series [8] is recorded as 0 (Herbicidal ratio of 5% or lower (almost no effect)). The “Herbicidal effect grade, B” value in series [9] is given as 0 (Herbicidal ratio of 5% or lower (almost no effect)).
As for `CON=C(C)CC1CC(O)=C(c2c(C)cc(C3CC3)cc2C)C1=O` (stereo not drawn) [6-050], the “effect on crop b” value in series [1] was 5 (Herbicidal ratio of 90% or more (almost completely withered)). Further, the “d: soybean, effect on crop grade” value in series [2] is listed as 0 (Herbicidal ratio of 5% or lower (almost no effect)). Further, the “H: Echinochloa crus-galli var. crus-galli, herbicidal effect grade” value in [3] was 4 (Herbicidal ratio of 70% or higher and lower than 90%). Further, the “K: Lolium multiflorum Lam., herbicidal effect grade” value in series [4] was 5 (Herbicidal ratio of 90% or more (almost completely withered)). Also, in series [5], the “M: Abutilon theophrasti, herbicidal effect grade” value was 0 (Herbicidal ratio of 5% or lower (almost no effect)). In series [6], the “Herbicidal effect grade, C” value was 0 (Herbicidal ratio of 5% or lower (almost no effect)). Besides, the “P: Stellaria media, herbicidal effect grade” value in series [7] was 3 (Herbicidal ratio of 40% or higher and lower than 70%). The “f: beet, effect on crop grade” value in series [8] is on record as 0 (Herbicidal ratio of 5% or lower (almost no effect)). Besides, the “Herbicidal effect grade, B” value in [9] was 0 (Herbicidal ratio of 5% or lower (almost no effect)).
As to `CON=C(C)CC1CC(O)=C(c2c(C)cc(OC)cc2C)C1=O` (stereo not drawn) [6-055], the “effect on crop b” value in [1] is 5 (Herbicidal ratio of 90% or more (almost completely withered)). For the same compound, the “d: soybean, effect on crop (criteria of Test Example 1)” value in series [2] was 3 (Herbicidal ratio of 40% or higher and lower than 70%). In addition, in [3], the “H: Echinochloa crus-galli var. crus-galli, herbicidal effect (criteria of Test Example 1)” value is recorded as 5 (Herbicidal ratio of 90% or more (almost completely withered)). For the same compound, in series [4], the “K: Lolium multiflorum Lam., herbicidal effect (criteria of Test Example 1)” value is recorded as 5 (Herbicidal ratio of 90% or more (almost completely withered)). The “M: Abutilon theophrasti, herbicidal effect grade” value in series [5] is 3 (Herbicidal ratio of 40% or higher and lower than 70%). Also, the “Herbicidal effect grade, C” value in series [6] was 0 (Herbicidal ratio of 5% or lower (almost no effect)). The “P: Stellaria media, herbicidal effect grade” value in series [7] was 0 (Herbicidal ratio of 5% or lower (almost no effect)). Besides, the “f: beet, effect on crop grade” value in [8] is reported as 0 (Herbicidal ratio of 5% or lower (almost no effect)). In addition, in [9], the “Herbicidal effect grade, B” value is 2 (Herbicidal ratio of 20% or higher and lower than 40%).

For the origin of these results see US11000033B2, “Ketone or oxime compound, and herbicide” (NISSAN CHEMICAL CORPORATION, priority 2014, dated 2021).
